Experiments:
[1] = test system: SERT (serotonin transporter); assay: Immunoblot, SERT protein in RN46A cells; format: cell-based
Experimental: Immunoblot Analysis: Protein expression of SERT was assessed by Western Blot. Total proteins were isolated from RN46A cells treated with compounds or vehicles. The cells were washed twice with PBS, lysed in a lysis buffer containing HEPES-Tx-PI buffer: 910 mM HEPES, 5 mM EDTA, 350 mM Sucrose, 1 μg/ml leupeptin, 1 μg/ml pepstatin, 1% Triton-X, 1 mM PMSF), processed with a 25G needle and centrifuged at 10,000 rpm for 5 min. Protein concentration was determined using the Micro BCA Protein Assay Kit (Fisher Scientific, Pittsburgh, Pa., USA) according to the manufacturers instructions. 25 μg proteins were loaded and separated by electrophoresis using the BioRad Electrophoretic System (60 V for 1 hour followed by 90 V for 5 hours). The proteins were then transferred to nitrocellulose membranes at 35 V overnight. The membrane was blocked for 1 hour at room temperature in 5% nonfat milk in Tris-buffered saline (TBS), then washed with Tween-20-TBS (TTBS, 0.1% Tween-20) three times (15 min, 5 min, 5 min), followed by incubation with primary antibodies SERT (dilution 1:200) (Antibody was purchased from Santa Cruz Biotechnology, Santa Cruz, Calif., USA) and β-actin (dilution 1:1000) (Antibody was purchased from Sigma-aldrich, USA) at room temperature for 2 hours. […]

[2] = test system: SERT (serotonin transporter); assay: Real-Time RT-PCR, SERT mRNA in RN46A cells; format: cell-based
Experimental: Realtime RT-PCR: Real-Time reverse transcriptase polymerase chain reaction (RT-PCR) analysis was used to measure mRNA expression of SERT under the control of β-actin. Briefly, total RNA was isolated from RN46A cells following treatment with Trizol reagent (Invitrogen, Carlsbad, Calif., USA) according to the manufacturer's instruction. […] 0.8 μg of total RNA from each sample was used for reverse transcription reaction using the TaqMan Reverse Transcription Reagents (Applied Biosystems, Foster City, Calif., USA) following the manufacturer's instructions. PCR was done using the SYBR green Master Mix (Applied Biosystems, Foster City, Calif., USA) following the manufacturer's instructions. The temperature cycling conditions of amplification were as follows: an initial step of denaturation at 95° C. for 10 min, 40 cycles of denaturation at 95° C. for 30 s, annealing at 55° C. for 30 s, and elongation at 72° C. for 30 s. Real-Time RT-PCR was performed using Mx3000P Real-Time Thermocyclers (Statagene, La Jolla, Calif., USA).

[3] = Food intake, high-fat diet and normal diet mice; format: in vivo, mouse
Source text: Six mice per subgroup were obtained finally.

PPARγ [4] = assay: Immunoblotting, PPARγ protein in 3T3-L1; format: cell-based, mouse; settings: 8 days
Experimental: Immunoblotting: Protein expression of SREBP-1, PPARγ, and C/EBPα relative to 3-actin was assessed by Western Blot. Total proteins were isolated from 3T3-L1 cells treated with compounds or vehicles for 8 days. The cells were washed twice with PBS, lysed in a HEPES-Tx-PI buffer (910 mM HEPES, 5 mM EDTA, 350 mM Sucrose, 1 μg/ml leupeptin, 1 μg/ml pepstatin, 1% Triton-X, 1 mM PMSF), processed with 25G needles and centrifuged at 12,000 rpm for 5 min. Protein concentration was determined using the Micro BCA Protein Assay Kit (Fisher Scientific, Pittsburgh, Pa., USA) following the manufacturers instructions. 25 μg proteins were loaded and separated by electrophoresis using the BioRad Electrophoretic System (65 V for 7 hour). The proteins were then transferred to nitrocellulose membranes at 40 V overnight. The membrane was blocked for 1 hour at room temperature in 5% nonfat milk in Tris-buffered saline (TBS), then washed with Tween-20-TBS (TTBS, 0.1% Tween-20) three times (15 min, 5 min, 5 min), followed by incubation with primary antibodies SREBP-1 (dilution 1:200), PPARγ (dilution 1:200), C/EBPα (dilution 1:200) (all purchased from Santa Cruz Biotechnology, Santa Cruz, Calif., USA) and 3-actin (dilution 1:1000, Sigma-Aldrich, St. Louis, Mo., USA) at room temperature for 2 hours. […]

in vitro = settings: mouse, 3T3-L1 cells during proliferation
Experimental: Culture medium was removed at 24, 48 and 72 hrs and MTT (0.5 mg/ml in pure DMEM, 50 μl/well) was added.

PPARγ [5] = assay: Real-Time RT-PCR, PPARγ mRNA in epididymal fat of FD mice; format: in vivo, mouse
Experimental: (§1) RNA and protein purification and quantification from epididymal fat tissues: RNA and protein was isolated from 60 mg of epididymal fat tissues with Trizol (Invitrogen, Carlsbad, Calif., USA) following the protocol recommended by the manufacturers. RNA was dissolved in pure water and quantified at 260/280 nm, and sample integrity was checked by 1.5% agarose gel electrophoresis. Protein concentration was determined using the Micro BCA Protein Assay Kit (Fisher Scientific, Pittsburgh, Pa., USA) according to the manufacturer's instructions.
Quantitative Real-Time RT-PCR: Real-Time reverse transcriptase polymerase chain reaction (RT-PCR) analysis was used to measure mRNA expression of genes PPARγ, C/EBPα, GATA-2 and GATA-3 in the control of β-actin. Total RNA (0.8 μg) from each sample was used for a reverse transcription reaction using the TaqMan Reverse Transcription Reagents (Applied Biosystems, Foster City, Calif., USA) following the manufacturer's instructions. PCR was done using the SYBR green Master Mix (Applied Biosystems, Foster City, Calif., USA) following the manufacturer's instructions. The cycling conditions of amplification were as follows: an initial step of denaturation at 95° C. for 10 min, 40 cycles of denaturation at 95° C. for 30 s, annealing at 55° C. for 30 s, and elongation at 72° C. for 30 s. Real-Time PCR was performed using Mx3000P Real-Time Thermocyclers (Stratagene, La Jolla, Calif., USA). The relative mRNA levels of these genes were calculated by 2-delta delta CT method and normalized with control-treated groups.

[6] = test system: low density lipoprotein receptor (LDLR); assay: Real-time RT-PCR, LDLR mRNA in 3T3-L1; format: cell-based, mouse; settings: 8 days
Source text: Realtime RT-PCR: Real-time reverse transcriptase polymerase chain reaction (RT-PCR) analysis was used to measure mRNA expression of genes SREBP-1, PPARγ, C/EBPα, low density lipoprotein receptor (LDLR), Adiponectin, and fatty acid synthase (FAS) under the control of β-actin. Briefly, total RNA was isolated from 3T3-L1 cells following treatment for 8 days with Trizol reagent (Invitrogen, Carlsbad, Calif., USA) according to the manufacturer's instruction. RNA was quantified using absorption of light at 260 nm, and sample purity was checked by OD 260 nm/280 nm. 0.8 μg of total RNA from each sample was used for reverse transcription reaction using the TaqMan Reverse Transcription Reagents (Applied Biosystems, Foster City, Calif., USA) according to the manufacturers' instructions. PCR was done using the SYBR green Master Mix (Applied Biosystems, Foster City, Calif., USA) according to the manufacturers' instructions. The temperature cycling conditions of amplification were as follows: an initial step of denaturation at 95° C. for 10 min, 40 cycles of denaturation at 95° C. for 30 s, annealing at 55° C. for 30 s, and elongation at 72° C. for 30 s. Realtime RT-PCR was performed using Mx3000P Realtime Thermocyclers (Statagene, La Jolla, Calif., USA). The relative mRNA levels of these genes were calculated by 2-delta delta CT method and normalized with control groups.

GATA-3 = assay: Immunoblot, GATA-3 protein in epididymal fat of FD mice; format: in vivo, mouse
Experimental: as §1
Immunoblot Analysis: Protein expression of GATA-2, GATA-3, PPARγ and C/EBPα in the control of β-actin was assessed by Western Blot. Protein samples from the same group were homogenized as previously reported (Hu and Davies, Phytomedicine (2009) 16:864-873). Protein (25 μg) was separated by polyacrylamide gel electrophoresis using the BioRad Electrophoretic System (60 V for 1 h followed by 90 V for 5 h). The proteins were then transferred to nitrocellulose membranes at 35 V overnight. The membrane was blocked for 1 h at room temperature in 5% nonfat milk in Tris-buffered saline (TBS), then washed with Tween-20-TBS (TTBS, 0.1% Tween-20) three times (15 min, 5 min, 5 min), followed by incubation with primary antibodies mouse GATA-2, GATA-3 (dilution 1:200), PPARγ, C/EBPα and β-actin (dilution 1:500) at room temperature for 2 h (all antibodies were purchased from Santa Cruz Biotechnology, Santa Cruz, Calif., USA). The membrane was rinsed three times (15 min, 5 min, 5 min), then incubated at room temperature for 1 h with horseradish peroxidase-conjugated second antibody (1:10,000). The membrane was then incubated in ECL reagent (GE Healthcare, Piscataway, N.J., USA) for 1 min. Protein was visualized using the UVP image analysis system (UVP, Upland, Calif., USA).

[7] = 8 μM berberine + 15 μM clozapine
[8] = 8 μM berberine + 50 μM risperidone

Row | Compound | SERT protein expression profile (Western blot) [1] | increase of SERT mRNA expression vs control group ([2]; 2 μM evodiamine) [fold] | increase of SERT mRNA expression vs control group ([2]; 4 μM evodiamine) [fold] | food intake ([3]; FD mice, 0.75 mg/kg/day, 36 days (control 3.5±0.4)) [g/mouse/day] | food intake ([3]; FD mice, 1.5 mg/kg/day, 36 days) [g/mouse/day] | food intake ([3]; FD mice, 3 mg/kg/day, 36 days) [g/mouse/day] | food intake ([3]; ND mice, 3 mg/kg/day, 36 days (control 3.8±0.7)) [g/mouse/day] | decrease of PPARγ protein expression vs clozapine treated group (PPARγ [4]; [7]) [%] | decrease of PPARγ protein expression vs risperidone treated group (PPARγ [4]; [8]) [%] | cytotoxicity at 1 day, 8 μM (in vitro) [%] | cytotoxicity at 2 days, 8 μM (in vitro) [%] | cytotoxicity at 3 days, 8 μM (in vitro) [%] | reduction of PPARγ mRNA expression vs control treated group (PPARγ [5]; 0.75 mg/kg/day) [%] | reduction of PPARγ mRNA expression vs control treated group (PPARγ [5]; 1.5 mg/kg/day) [%] | reduction of PPARγ mRNA expression vs control treated group (PPARγ [5]; 3 mg/kg/day) [%] | decrease of LDLR mRNA expression vs clozapine treated group [6, 7] [%] | decrease of LDLR mRNA expression vs risperidone treated group [6, 8] [%] | GATA-3 protein expression increased to (GATA-3; 0.75 mg/kg/day) [fold] | GATA-3 protein expression increased to (GATA-3; 1.5 mg/kg/day) [fold] | GATA-3 protein expression increased to (GATA-3; 3 mg/kg/day) [fold]
1 | evodiamine | consistent with its mRNA expression profile | 2.5 | 1.7 |  |  |  |  |  |  |  |  |  |  |  |  |  |  |  |  | 
2 | COc1ccc2cc3[n+](cc2c1OC)CCc1cc2c(cc1-3)OCO2.[Cl-] [berberine, Berberine (Chloride Form)] |  |  |  | 3.0±0.3 | 2.7±0.5 | 2.5±0.2 | 3.3±0.5 | 76 | 85.7 | 13.2 | 13.8 | 18.6 | 56.1 | 57.7 | 78.3 | 82.3 | 90 | 2.2 | 2.5 | 6.9
